Measurements reported in patent publication US8637528B2, “Use of PDE7 inhibitors for the treatment of movement disorders” (Omeros Corporation, priority 2007, dated 2014).

Assays:
[1] = tested on: MPTP-treated mice; test: inked paw stride length in the MPTP mouse model of Parkinson's disease, confirmatory study (Example 6); format: in vivo; parameters: key to Letter Designation (statistical group of stride length): A: Groups that share a letter are not statistically different; groups that do not share a letter are significantly different from each other.; B: Groups that share a letter are not statistically different; groups that do not share a letter are significantly different from each other.; C: Groups that share a letter are not statistically different; groups that do not share a letter are significantly different from each other; details: for Letter Designation (statistical group of stride length): No treatment = A, MPTP = B; for Stride length (cm) MEAN ± SEM: MPTP-lesioned mice, 20 minutes after dosing
Description: Adult male C57BL/6J; retired breeders, aged between 7-9 months (Jackson Laboratory, Bar Harbor, Me., USA), singly housed.
MPTP Mice received 2 subcutaneous injections of methylphenyltetrahydropyridine (“MPTP”) at a dose of 15 mg/kg (free base) with a 10-12 hour interval between injections. Control mice (sham lesion groups) were administered saline instead of MPTP.
Seven days after MPTP/saline administration, OM69 was administered to mice. For each dose, a 100× stock of OM69 was prepared in 100% DMSO and subsequently diluted 100× into phosphate buffered saline (PBS). Then 100 μL of this 1× solution was administered intraperitoneally (IP).
Prior to injection with MPTP or saline, animals were pre-trained to walk across a clean sheet of paper into their home cage without stopping. For assessment of stride length, animals had their forepaws placed in black ink and the length of forepaw steps during normal walking (in a straight line only) was measured. The animals were immediately put back into their home cage upon completion of the task. Stride length was determined by measuring the distance between each step on the same side of the body, measuring from the middle toe of the first step to the heel of the second step. An average of at least four clear steps was calculated.
Data was analyzed using Prism 4.0 software. Groups were analyzed by one way ANOVA and Student-Newman-Keuls post hoc test when appropriate. Significance was considered reached at p<0.05. Treatment groups in the stride length graph that are statistically different are indicated by the letters in Table 6.
Retired breeder male mice (28 animals total) were treated with 2×15 mg/kg MPTP (12 saline; […]) to induce a Parkinsonian state (neurochemical loss of dopamine with corresponding behavioral deficits). On day 1 baseline stride length was measured and then all mice were treated with MPTP or saline. On day 8 stride length was measured again, and then the MPTP-treated animals were divided randomly into two groups of fourteen. As described in Example 5, dosing with the successive treatments indicated in FIG. 12 occurred on consecutive days, and in each case stride length was measured 20 minutes after dosing.
On Day 9, Group 1 animals were treated with OM69 (0.01 mg/kg) and Group 2 were treated with L-dopa (1 mg/kg). On Day 10, Group 1 animals were treated with OM69 (0.03 mg/kg) and Group 2 were treated with L-dopa (5 mg/kg). On Day 11, Group 1 animals were treated with OM69 (0.05 mg/kg) and Group 2 were treated with OM69 (0.1 mg/kg). On Day 12, Group 1 was treated with OM69 (0.07 mg/kg).
Next, for combination studies, the two groups were combined. On Day 14, all the animals were treated with both L-dopa (1 mg/kg) and OM69 (0.01 mg/kg). On Day 15, all the animals were treated with L-dopa (1 mg/kg) in combination with a higher dose of OM69 (0.03 mg/kg).

[2] = target: Tyrosine Hydroxylase (Rattus norvegicus (Rat), UniProt P04177); test: Tyrosine Hydroxylase enzyme assay; format: biochemical; details: 10.0 μM
Sequence of Tyrosine Hydroxylase (P04177 whole entry): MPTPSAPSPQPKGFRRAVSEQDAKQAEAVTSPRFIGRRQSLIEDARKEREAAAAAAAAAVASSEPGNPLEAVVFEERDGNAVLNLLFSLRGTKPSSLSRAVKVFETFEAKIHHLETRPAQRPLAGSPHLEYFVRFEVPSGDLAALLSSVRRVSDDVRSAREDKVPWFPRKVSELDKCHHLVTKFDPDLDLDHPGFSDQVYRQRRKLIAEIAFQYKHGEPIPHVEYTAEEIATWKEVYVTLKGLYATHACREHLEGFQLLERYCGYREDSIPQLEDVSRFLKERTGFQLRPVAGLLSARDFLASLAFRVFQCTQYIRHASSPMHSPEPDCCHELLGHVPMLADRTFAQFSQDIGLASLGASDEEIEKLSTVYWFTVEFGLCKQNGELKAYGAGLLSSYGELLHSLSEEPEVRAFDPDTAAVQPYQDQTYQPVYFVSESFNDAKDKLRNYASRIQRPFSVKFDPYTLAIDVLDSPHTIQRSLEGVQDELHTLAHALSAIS
Description: Tyrosine Hydroxylase was assayed as described in Roskoski, R., Jr., et al., J. Biochem 218:363-370 (1993) with the following modifications. Tyrosine Hydroxylase was isolated from Wistar rat brain. The substrate was 100 μM L-[3,5-^3H]Tyrosine+L-Tyrosine. The vehicle control was 1% DMSO. Compound OM69 was tested at 10 μM in incubation buffer (125 mM MES, pH 6.0, 0.5 mg/ml Catalase, 12.5 mM DTT, 0.5 mM (6R)-5,6,7,8-Tetrahydrobiopterin). The reaction was pre-incubated for 15 minutes at 37° C. Tyrosine Hydroxylase enzyme was added, and the reaction was incubated for 20 minutes at 37° C. [^3H]-H20 was quantitated.

[3] = target: PDE2A (Homo sapiens (Human), UniProt O00408); test: PDE selectivity SPA assay, PDE2A; format: biochemical; details: IC50 against PDE2A divided by IC50 against PDE7A
Sequence of PDE2A (O00408 whole entry): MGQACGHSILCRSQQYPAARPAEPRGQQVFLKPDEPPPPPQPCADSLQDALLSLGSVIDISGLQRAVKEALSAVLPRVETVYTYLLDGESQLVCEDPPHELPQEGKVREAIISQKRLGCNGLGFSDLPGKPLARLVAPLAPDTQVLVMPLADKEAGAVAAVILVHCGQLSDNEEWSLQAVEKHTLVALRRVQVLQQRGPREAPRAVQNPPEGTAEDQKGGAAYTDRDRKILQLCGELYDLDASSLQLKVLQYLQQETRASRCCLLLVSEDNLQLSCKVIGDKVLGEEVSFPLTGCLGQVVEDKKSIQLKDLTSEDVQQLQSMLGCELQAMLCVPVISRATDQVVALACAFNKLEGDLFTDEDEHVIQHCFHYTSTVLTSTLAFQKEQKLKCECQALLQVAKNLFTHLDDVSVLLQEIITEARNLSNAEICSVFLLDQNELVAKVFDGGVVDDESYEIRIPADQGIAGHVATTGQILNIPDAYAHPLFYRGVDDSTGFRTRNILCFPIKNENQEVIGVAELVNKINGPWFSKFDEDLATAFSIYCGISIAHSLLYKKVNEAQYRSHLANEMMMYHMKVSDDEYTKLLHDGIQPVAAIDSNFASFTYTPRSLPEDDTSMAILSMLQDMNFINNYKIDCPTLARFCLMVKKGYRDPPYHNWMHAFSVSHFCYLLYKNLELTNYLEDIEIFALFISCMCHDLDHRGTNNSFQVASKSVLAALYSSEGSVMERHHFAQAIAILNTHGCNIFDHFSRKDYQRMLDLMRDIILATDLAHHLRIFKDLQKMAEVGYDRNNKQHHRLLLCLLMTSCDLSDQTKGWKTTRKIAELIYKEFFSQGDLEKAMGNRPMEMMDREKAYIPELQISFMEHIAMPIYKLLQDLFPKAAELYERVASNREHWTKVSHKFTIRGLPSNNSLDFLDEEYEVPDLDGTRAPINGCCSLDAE
Description: (§1) Phosphodiesterase activity was measured by a scintillation proximity assay (SPA, GE Healthcare: Product Code TRKQ7100) with [^3H]-cAMP as the substrate for PDEs 3A, 4A, 8A, or with [^3H]-cGMP as the substrate for PDEs 1B, 2A, 5A, 9A, 10A and 11A. Purified human PDE1B, PDE2A, PDE3A, PDE4A, PDE5A, PDE8A, PDE9A and PDE11A4 were obtained from BPS Bioscience, San Diego, Calif. Purified murine PDE10A was also obtained from BPS Biosciences. […] Therefore, the results obtained using murine PDE10A are believed to be representative of human PDE10.
(§2) The purified PDE enzymes were each diluted and stored in a solution containing 25 mM Tris-Cl (pH 8.0), 100 mM NaCl, 0.05% Tween 20, 50% glycerol, and 3 mM DTT. PDE assays were carried out in the following assay cocktail (final concentrations): 50 mM Tris-Cl (pH 8.0), 8.3 mM MgCl2, 1.7 mM EGTA, 0.5 mg/ml BSA, 2.5% DMSO and between 0.2 ng and 6 ng of the PDE protein (depending on the enzyme activity) in a final volume of 0.1 mL.
(§3) Reactions were initiated by addition of enzyme, incubated for 20 minutes at 30° C. and then terminated by the addition of 50 μl of SPA beads containing Zn^2+.
(§4) The mixture was shaken, and allowed to settle for 3 hours. Then the production of [^3H]-AMP or [^3H]-GMP from the substrate was quantitated by scintillation counting in a Wallac® plate counter. […]

[4] = target: PDE1B (Homo sapiens (Human), UniProt Q01064); test: PDE selectivity SPA assay, PDE1B; format: biochemical; details: IC50 against PDE1B divided by IC50 against PDE7A
Sequence of PDE1B (Q01064 whole entry): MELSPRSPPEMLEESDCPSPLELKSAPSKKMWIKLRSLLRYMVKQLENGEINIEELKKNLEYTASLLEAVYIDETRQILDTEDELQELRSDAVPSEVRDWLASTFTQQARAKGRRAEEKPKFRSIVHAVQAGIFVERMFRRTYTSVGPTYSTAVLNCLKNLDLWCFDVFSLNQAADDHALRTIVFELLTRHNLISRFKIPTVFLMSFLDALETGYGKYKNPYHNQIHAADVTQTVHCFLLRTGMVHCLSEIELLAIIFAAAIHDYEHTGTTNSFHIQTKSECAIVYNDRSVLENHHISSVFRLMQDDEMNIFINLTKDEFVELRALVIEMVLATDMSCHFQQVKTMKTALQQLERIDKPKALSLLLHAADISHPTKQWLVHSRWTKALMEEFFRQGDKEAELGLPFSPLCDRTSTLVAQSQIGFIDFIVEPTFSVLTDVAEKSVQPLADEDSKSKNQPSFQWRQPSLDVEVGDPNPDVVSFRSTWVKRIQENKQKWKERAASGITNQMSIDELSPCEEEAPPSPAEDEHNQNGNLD
Description: as §1, §2, §3, §4

[5] = target: Dopamine D4.2 receptor (Homo sapiens (Human), UniProt P21917, DEL265-296); test: Dopamine D4.2 radioligand binding assay; details: 10.0 μM
Sequence of Dopamine D4.2 receptor (P21917 other isoform, or with tags, fused parts or gaps del 265-296): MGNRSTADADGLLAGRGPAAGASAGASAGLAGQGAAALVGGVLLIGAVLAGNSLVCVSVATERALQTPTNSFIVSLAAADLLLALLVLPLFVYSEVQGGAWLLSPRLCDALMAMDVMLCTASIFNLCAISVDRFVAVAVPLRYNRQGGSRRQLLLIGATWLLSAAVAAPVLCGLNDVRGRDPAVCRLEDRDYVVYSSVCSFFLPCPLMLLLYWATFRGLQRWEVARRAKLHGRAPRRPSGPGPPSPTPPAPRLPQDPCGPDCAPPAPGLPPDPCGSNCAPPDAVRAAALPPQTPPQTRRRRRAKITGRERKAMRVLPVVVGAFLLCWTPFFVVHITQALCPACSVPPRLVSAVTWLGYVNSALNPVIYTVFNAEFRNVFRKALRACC

[6] = target: Monoamine Oxidase MAO-B (Homo sapiens (Human), UniProt P27338); test: Monoamine Oxidase MAO-B enzyme assay; format: biochemical
Sequence of Monoamine Oxidase MAO-B (P27338 whole entry, looked up): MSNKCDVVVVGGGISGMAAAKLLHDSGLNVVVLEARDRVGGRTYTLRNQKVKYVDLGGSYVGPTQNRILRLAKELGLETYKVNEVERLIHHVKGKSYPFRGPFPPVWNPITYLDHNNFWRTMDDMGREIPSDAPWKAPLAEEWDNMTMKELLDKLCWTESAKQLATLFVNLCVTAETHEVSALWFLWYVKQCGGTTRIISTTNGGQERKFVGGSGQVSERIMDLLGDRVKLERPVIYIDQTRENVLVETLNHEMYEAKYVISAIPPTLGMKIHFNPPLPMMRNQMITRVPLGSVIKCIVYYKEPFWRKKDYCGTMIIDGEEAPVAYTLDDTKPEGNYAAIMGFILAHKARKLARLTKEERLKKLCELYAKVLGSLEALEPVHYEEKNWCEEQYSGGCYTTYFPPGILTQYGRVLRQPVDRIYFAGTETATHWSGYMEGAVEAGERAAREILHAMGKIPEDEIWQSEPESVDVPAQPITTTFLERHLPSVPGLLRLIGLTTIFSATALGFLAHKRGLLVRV

## N[C@@H](Cc1ccc(O)c(O)c1)C(=O)O [L-dopa, levodopa, reference compound]
[1]; 1 mg/kg L-DOPA
  Letter Designation (statistical group of stride length): B
  Stride length (cm) MEAN ± SEM: 5.78 ± 0.09 cm
[1]; 5 mg/kg L-DOPA
  Letter Designation (statistical group of stride length): A
  Stride length (cm) MEAN ± SEM: 7.29 ± 0.07 cm
[1]; MPTP-treated mice, 1 mg/kg L-dopa
  effect on stride length, in words: did not result in a significant increase in stride length
[1]; MPTP-treated mice, 5 mg/kg L-dopa
  effect on stride length, in words: returned stride length to control (unlesioned) values

## COc1cc(N)ccc1-c1cc2c(c(=O)[nH]1)C(C1CCCCC1)N=[N+]2C (centres unmarked) [OM69]
[2]
  percent inhibition of Tyrosine Hydroxylase enzymatic activity: 4.0%
[3]
  Fold Selectivity for PDE7A versus PDE2A: 11,100 fold
[1]; 0.01 mg/kg OM69
  Letter Designation (statistical group of stride length): B
[1]; 0.03 mg/kg OM69
  Letter Designation (statistical group of stride length): B
[1]; 0.05 mg/kg OM69
  Letter Designation (statistical group of stride length): C
[1]; 0.07 mg/kg OM69
  Letter Designation (statistical group of stride length): C
[1]; 0.1 mg/kg OM69
  Letter Designation (statistical group of stride length): A
[1]; 0.01 mg/kg OM69 IP
  Stride length (cm) MEAN ± SEM: 5.77 ± 0.17 cm
[1]; 0.03 mg/kg OM69 IP
  Stride length (cm) MEAN ± SEM: 5.93 ± 0.14 cm
[1]; 0.05 mg/kg OM69 IP
  Stride length (cm) MEAN ± SEM: 6.38 ± 0.14 cm
[1]; 0.07 mg/kg OM69 IP
  Stride length (cm) MEAN ± SEM: 6.65 ± 0.18 cm
[1]; 0.1 mg/kg OM69 IP
  Stride length (cm) MEAN ± SEM: 7.23 ± 0.07 cm
[1]; MPTP-treated mice
  potency relative to L-dopa in restoring stride length: approximately 50 fold
[1]; MPTP-treated mice, 0.1 mg/kg OM69
  effect on stride length, in words: returned stride length to control (unlesioned) values
[1]; MPTP-treated mice, FIG. 18
  dose dependence of the effect on stride length, in words: increases stride length in MPTP-treated mice in a dose-dependent manner
[1]; MPTP-treated mice, intermediate doses of OM69
  effect on stride length, in words: statistically significant (p<0.05) increase in stride length
[1]; MPTP-treated mice, low doses of OM69 (0.01 mg/kg or 0.03 mg/kg)
  effect on stride length, in words: did not increase stride length
[4]
  Fold Selectivity for PDE7A versus PDE1B: 29,608 fold
[5]
  percent inhibition of ligand binding to Dopamine D4.2: −16.0%
[6]; Exp #1, 10.0 μM
  percent inhibition of MAO-B enzymatic activity: 49.0%
[6]; Exp #2, 1.0 μM
  percent inhibition of MAO-B enzymatic activity: 27%
[6]; Exp #2, 10.0 μM
  percent inhibition of MAO-B enzymatic activity: 67.0%
[6]; estimated from 27% inhibition at 1 μM, read-out: MAO-B IC50 indicated by the percentage inhibition
  IC50: ~2.7 µM
[6]; if present in the brain at 17 nM
  inhibition of MAO-B at brain concentration: less than 0.7%

## O=C1Nc2c(Cl)ccc(OCCO)c2C2(CCCCC2)N1 [OM955]
[3]
  Fold Selectivity for PDE7A versus PDE2A: 209 fold
[4]
  Fold Selectivity for PDE7A versus PDE1B: 342 fold
